Measured values as given in ChEMBL document CHEMBL3822432, “Antibacterial and anticancer activity of a series of novel peptides incorporating cyclic tetra-substituted C(α) amino acids” (Bioorg Med Chem, 2016).
Converted amounts (≈) assume the structure as drawn. Non-standard residues stand in square brackets, D forms with d. Residues, ends and D or L forms follow the SMILES beside them. Ac6c = NC1(C(=O)O)CCCCC1

Legend:
[1] = system: MCF7; assay: Antiproliferative activity against human MCF7 cells after 72 hrs by Celltiter-Glo luminescent cell viability assay; type: functional, cell-based; conditions: MCF7, 72 h
[2] = Antiproliferative activity against human IGROV1 cells after 72 hrs by Celltiter-Glo luminescent cell viability assay; type: functional, cell-based; conditions: IGROV-1, 72 h
[3] = system: Staphylococcus aureus; assay: Antibacterial activity against Staphylococcus aureus Seattle 1945 ATCC 25923 by two fold serial dilution method; type: functional
[4] = system: A549; assay: Antiproliferative activity against human A549 cells after 72 hrs by Celltiter-Glo luminescent cell viability assay; type: functional, cell-based; conditions: A549, 72 h
[5] = system: Staphylococcus aureus; assay: Antibacterial activity against methicillin-resistant Staphylococcus aureus USA 300 NRS 384 by two fold serial dilution method; type: functional
[6] = Antibacterial activity against Clostridium difficile VIP 10463 ATCC 43255 by two fold serial dilution method; type: functional, Clostridium difficile ATCC 43255; conditions: Clostridioides difficile
[7] = system: Enterococcus faecalis; assay: Antibacterial activity against Enterococcus faecalis Portland ATCC 29212 by two fold serial dilution method; type: functional; conditions: ATCC 29212 Portland
[8] = Antibacterial activity against Yersinia pestis CO92 NR641 by two fold serial dilution method; type: functional
[9] = system: Mycobacterium tuberculosis; assay: Antibacterial activity against Mycobacterium tuberculosis H37Ra ATCC 2517 by two fold serial dilution method; type: functional
[10] = system: Acinetobacter baumannii; assay: Antibacterial activity against Acinetobacter baumannii B5W71 ATCC 15149 by two fold serial dilution method; type: functional
[11] = Antibacterial activity against Bacillus anthracis Ames NR-3838 by two fold serial dilution method; type: functional, Bacillus anthracis str. Ames
[12] = system: Streptococcus pneumoniae; assay: Antibacterial activity against Streptococcus pneumoniae 262 ATCC 49619 by two fold serial dilution method; type: functional
[13] = system: Pseudomonas aeruginosa; assay: Antibacterial activity against Pseudomonas aeruginosa Boston 41501 ATCC 27853 by two fold serial dilution method; type: functional
[14] = Antiproliferative activity against human PC3 cells after 72 hrs by Celltiter-Glo luminescent cell viability assay; type: functional, cell-based; conditions: PC-3, 72 h
[15] = Antiproliferative activity against human DLD1 cells after 72 hrs by Celltiter-Glo luminescent cell viability assay; type: functional, cell-based; conditions: DLD-1, 72 h
[16] = Antibacterial activity against carbapenem-resistant Klebsiella pneumoniae K6 ATCC 700603 by two fold serial dilution method; type: functional, Klebsiella pneumoniae 700603
[17] = system: RL; assay: Antiproliferative activity against human RL cells after 72 hrs by Celltiter-Glo luminescent cell viability assay; type: functional, cell-based
[18] = Antiproliferative activity against human UACC62 cells after 72 hrs by Celltiter-Glo luminescent cell viability assay; type: functional, cell-based; conditions: UACC-62, 72 h
[19] = Antibacterial activity against Francisella tularensis SCHU S4 NR-643 by two fold serial dilution method; type: functional
[20] = system: A498; assay: Antiproliferative activity against human A498 cells after 72 hrs by Celltiter-Glo luminescent cell viability assay; type: functional, cell-based; conditions: A498, 72 h
[21] = system: Burkholderia pseudomallei; assay: Antibacterial activity against Burkholderia pseudomallei AHS 1 NCTC 8016 by two fold serial dilution method; type: functional
[22] = Antiproliferative activity against human MIAPaCa2 cells after 72 hrs by Celltiter-Glo luminescent cell viability assay; type: functional, cell-based; conditions: MIA PaCa-2, 72 h
[23] = system: Neisseria gonorrhoeae; assay: Antibacterial activity against Neisseria gonorrhoeae F-18 ATCC 49226 by two fold serial dilution method; type: functional
[24] = Antiproliferative activity against human COLO205 cells after 72 hrs by Celltiter-Glo luminescent cell viability assay; type: functional, cell-based; conditions: COLO 205, 72 h
[25] = Antibacterial activity against Salmonella enterica LT2 Typhimurium ATCC 15277 by two fold serial dilution method; type: functional
[26] = system: Klebsiella aerogenes; assay: Antibacterial activity against carbapenem-resistant Enterobacter aerogenes NCDC819-56 ATCC 13048 by two fold serial dilution method; type: functional
[27] = system: NCI-H69; assay: Antiproliferative activity against human NCI-H69 cells after 72 hrs by Celltiter-Glo luminescent cell viability assay; type: functional, cell-based; conditions: NCI-H69, 72 h
[28] = system: CFPAC-1; assay: Antiproliferative activity against human CFPAC-1 cells after 72 hrs by Celltiter-Glo luminescent cell viability assay; type: functional, cell-based; conditions: CFPAC-1, 72 h

Structure (SMILES) | IC50 [1] [µM] | IC50 [2] [µM] | MIC [3] [µM] | IC50 [4] [µM] | MIC [5] [µM] | MIC [6] [µM] | MIC [7] [µM] | MIC [8] [µM] | MIC [9] [µM] | MIC [10] [µM] | MIC [11] [µM] | MIC [12] [µM] | MIC [13] [µM] | IC50 [14] [µM] | IC50 [15] [µM] | MIC [16] [µM] | IC50 [17] [µM] | IC50 [18] [µM] | MIC [19] [µM] | IC50 [20] [µM] | also measured
CC(=O)NCC(=O)N[C@@H](Cc1ccccc1)C(=O)NC1(C(=O)NCC(=O)NC2(C(=O)N[C@@H](CCCCN)C(=O)N[C@@H](CCCCN)C(=O)NC3(C(=O)NCC(=O)NC4(C(=O)N[C@@H](Cc5ccccc5)C(=O)NC5(C(=O)NCC(=O)NC6(C(=O)NCC(=O)N[C@@H](CCCCN)C(=O)N[C@@H](CCCCN)C(=O)NC7(C(=O)N[C@@H](CCCCN)C(=O)N[C@@H](CCCCN)C(=O)N[C@@H](CCCCN)C(=O)N[C@@H](CCCCN)C(N)=O)CCCCC7)CCCCC6)CCCCC5)CCCCC4)CCCCC3)CCCCC2)CCCCC1 (Ac-GF[Ac6c]G[Ac6c]KK[Ac6c]G[Ac6c]F[Ac6c]G[Ac6c]GKK[Ac6c]KKKK-NH2) | 6.2 | > 7.5 | 19.7 (≈ 50 µg/mL) | 7.2 | 39.4 (≈ 100 µg/mL) | 2.46 (≈ 6.25 µg/mL) | 19.7 (≈ 50 µg/mL) | > 39 | 4.92 (≈ 12.5 µg/mL) | 2.46 (≈ 6.25 µg/mL) | 2.46 (≈ 6.25 µg/mL) | 39.4 (≈ 100 µg/mL) | 2.46 (≈ 6.25 µg/mL) | > 7.5 | > 7.5 | 19.7 (≈ 50 µg/mL) | 2 | 2.6 | 19.7 (≈ 50 µg/mL) | 3 | MIC [21]: > 39 µM; IC50 [22]: 7.3 µM; MIC [23]: 0.61 µM (≈ 1.55 µg/mL); IC50 [24]: 5.4 µM; MIC [25]: 2.46 µM (≈ 6.25 µg/mL); MIC [26]: > 39 µM; IC50 [27]: 1.9 µM; IC50 [28]: > 7.5 µM
CC(=O)NCC(=O)N[C@@H](Cc1ccccc1)C(=O)NC1(C(=O)NCC(=O)NC2(C(=O)N[C@@H](CCCNC(=N)N)C(=O)NC3(C(=O)NCC(=O)NC4(C(=O)N[C@@H](Cc5ccccc5)C(=O)NC5(C(=O)NCC(=O)NC6(C(=O)NCC(=O)N[C@@H](CCCNC(=N)N)C(=O)NC7(C(=O)N[C@@H](CCCNC(=N)N)C(=O)N[C@@H](CCCNC(=N)N)C(=O)N[C@@H](CCCNC(=N)N)C(=O)N[C@@H](CCCNC(=N)N)C(N)=O)CCCCC7)CCCCC6)CCCCC5)CCCCC4)CCCCC3)CCCCC2)CCCCC1 (Ac-GF[Ac6c]G[Ac6c]R[Ac6c]G[Ac6c]F[Ac6c]G[Ac6c]GR[Ac6c]RRRR-NH2) | 7 | 6 | 1.28 (≈ 3.14 µg/mL) | 6.4 | 5.09 (≈ 12.5 µg/mL) | 2.55 (≈ 6.25 µg/mL) | 1.28 (≈ 3.14 µg/mL) | > 41 | 40.8 (≈ 99.9 µg/mL) | 2.55 (≈ 6.25 µg/mL) | 2.56 (≈ 6.28 µg/mL) | 10.2 (≈ 25 µg/mL) | 2.55 (≈ 6.25 µg/mL) | 7.4 | 6.4 | 20.4 (≈ 49.9 µg/mL) | 1.1 | 6.4 | 40.8 (≈ 99.9 µg/mL) | 5.6 | MIC [21]: > 41 µM; IC50 [22]: 5 µM; MIC [23]: 2.56 µM (≈ 6.28 µg/mL); IC50 [24]: 6.6 µM; MIC [25]: 5.09 µM (≈ 12.5 µg/mL); MIC [26]: 2.55 µM (≈ 6.25 µg/mL); IC50 [27]: 2 µM; IC50 [28]: 2.6 µM
